Reference: patent publication US4201725A, “Secondary amines” (priority 1974, dated 1980)

Assays:
[1] = tested on: arterial pressure and nictitating membrane (norepinephrine); assay: Influence on peripheral noradrenergic phenomena (norepinephrine, anaesthetized cat); details: cat, i.v.
electrocardiogram = assay: Effect on the electrocardiogram; format: in vivo; details: amantadine: 5 mg/kg injected, dog
[2] = tested on: cholinergic effects of tremorine; assay: Anti-tremorine test in vivo; set-up: species or system mice (male, OF1 strain)
Protocol: When injected into mice, tremorine produces peripheral effects i.e. weeping, sweating, salivation and diarrhoea and central effects i.e. tremor and akinesia. Such effects are due to an increase in the amount of intracerebral acetylcholine and serotonine.
[…] Thirty minutes later a dose of 10 mg/kg of tremorine was injected by intraperitoneal route and, at different times after this injection, note was taken of the cholinergic effects on each animal in accordance with the following scale:

in vivo = details: mouse, po
[3] = tested on: neuroleptic-induced catatonia; assay: Inhibition of neuroleptic (prochlorperazine)-induced catatonia (preventive); format: in vivo, rat (male, OFA strain)
Protocol: The blocking of dopaminergic receptors by neuroleptics in the extra-pyramidal system induces catatonia in the rat. Catatonia is differentiated from sedative properties by means of the test used hereabove for reserpine-induced catatonia. The same system of scoring was also employed in the present case.
An oral dose of the compound to be studied in aqueous solution was administered to batches of 10 male rats of the OFA strain weighing about 150 to 200 g.
Three hours after the injection of this latter compound, catatonia was measured. An identical trial was also carried out with control animals which received prochlorperazine but none of the compounds under study.
The scoring system used was that given hereabove for Table I.

[4] = SPERBER et al., J. Amer. Chem. Soc., 71, 3352 (1949); cited from earlier work
[5] = SPERBER et al., J. Amer. Chem. Soc., 71, 3352 (1949); cited from earlier work; remark: listed apart in the source
[6] = tested on: reserpine-induced catatonia; assay: Inhibition of reserpine-induced catatonia (preventive, oral compound 30 min before reserpine); format: in vivo, rat (male, OFA strain); details: for index of reserpine-induced catatonia (numerator of ratio): 0.031 m mol/kg oral, hydrochloride form
Protocol: After sufficient doses of reserpine have been administered to the rat, a series of symptoms occur, more particularly ptosis, catatonia and a drop in central temperature. These symptoms are caused by the depletion of the intragranular reserve pool of biogenetic amines at the synaptic terminals.
An oral dose of the compound to be studied in aqueous solution was administered to batches of 10 male rats of the OFA strain weighing about 150 to 200 g. Thirty minutes later a dose of 5 mg/kg of reserpine was given by intraperitoneal route. Three hours after the injection of reserpine, the animals were suspended by the four paws to a horizontally stretched wire fixed at 15 cm from the ground. The catatonia animals were those which maintained the position so given for at least 30 seconds. […] The maximum score was therefore 10 per batch. An identical trial was undertaken with control animals which received reserpine but none of the compounds being studied.

monoamine oxidase = assay: Inhibitory effect on monoamine oxidase
Tremor-inducing action = details: 0.031 m mol/kg oral, 30 min, hydrochloride form; for number of animals presenting tremors (denominator of ratio): batches of 10 rats

SMILES: NC12CC3CC(CC(C3)C1)C2 [Amantadine, 1-amino-adamantane, reference compound]
- effect on the nictitating membrane (in words) [1]: stimulates the contractile reactions of the nictitating membrane but does not potentiate the effects of the electric stimulation
- potentiation of norepinephrine / peripheral adrenergic effects (in words) [1]: potentiates exogenous norepinephrine from 1 mg/kg
- potentiation of norepinephrine / peripheral adrenergic effects (in words) ([1]; listed as amantadine): potentiates the peripheral adrenergic effects
- effect on the electrocardiogram (in words) (electrocardiogram): provokes cardiac arrhythmia due to ventricular extrasystoles
- antitremorine properties (in words) ([2]; 5 mg/kg Compound 1, 40 mg/kg amantadine): devoid of antitremorine properties
- central cholinergic effects (normal and provoked tremor) ([2]; 40 mg/kg oral, identical to the peripheral score of 4): Identical results

SMILES: CCCC(N)(CC)CCC [Compound 2, 1-Ethyl-1-n-propyl-n-butylamine]
- selectivity ratio (in vivo): 30
- Inhibition of the neuroleptic-induced catatonia ([3]; 5 mg/kg oral): 1 (represents 20 to 30% inhibition of catatonia in comparison with the controls)

SMILES: CCCCC(N)(CCCC)CCCC [Compound 12, 1,1-Di-n-butyl-n-pentylamine]
- spasmolytic activity (in words) [4]: less spasmolytic
- toxicity (in words) [5]: more toxic than the corresponding trialkylethylamines
- selectivity ratio (in vivo): 25

SMILES: CCCC(CCC)(CCC)NC [Compound 27, N-Methyl-1,1-di-n-propyl-n-butylamine]
- selectivity ratio (in vivo): 16.5
- Inhibition of reserpine-induced catatonia ([6]; 6 mg/kg oral): 4 (represents 100% inhibition of catatonia in comparison with the controls)
- index of reserpine-induced catatonia (numerator of ratio) [6]: 4 (represents 100% inhibition of catatonia in comparison with the controls)
- inhibitory effects on the monoamine oxidase (in words) (monoamine oxidase): practically devoid of inhibitory effects
- Inhibition of the neuroleptic-induced catatonia ([3]; 6 mg/kg oral): 3 (represents 70 to 80% inhibition of catatonia in comparison with the controls)
- number of animals presenting tremors (denominator of ratio) (Tremor-inducing action): 4
- ratio of index of reserpine-induced catatonia inhibition to number of animals presenting tremors (Tremor-inducing action): 1

SMILES: CCCC(CCC)(CCC)N1CCC1 [Compound 29, N,N-Trimethylene-1,1-di-n-propyl-n-butylamine]
- selectivity ratio (in vivo): 10.8
- Inhibition of reserpine-induced catatonia ([6]; 3 mg/kg oral): 3 (represents 70 to 80% inhibition of catatonia in comparison with the controls)
- Inhibition of reserpine-induced catatonia ([6]; 6 mg/kg oral): 4 (represents 100% inhibition of catatonia in comparison with the controls)
- Inhibition of the neuroleptic-induced catatonia ([3]; 3 mg/kg oral): 2 (represents 50% inhibition of catatonia in comparison with the controls)
- Inhibition of the neuroleptic-induced catatonia ([3]; 6 mg/kg oral): 4 (represents 100% inhibition of catatonia in comparison with the controls)

SMILES: CCCC(CCC)(NC)C(C)C [Compound 30, N-Methyl-1-n-propyl-1-isopropyl-n-butylamine]
- selectivity ratio (in vivo): > 25
- Inhibition of reserpine-induced catatonia ([6]; 6 mg/kg oral): 4 (represents 100% inhibition of catatonia in comparison with the controls)
- index of reserpine-induced catatonia (numerator of ratio) [6]: 4 (represents 100% inhibition of catatonia in comparison with the controls)
- Inhibition of the neuroleptic-induced catatonia ([3]; 6 mg/kg oral): 3 (represents 70 to 80% inhibition of catatonia in comparison with the controls)
- number of animals presenting tremors (denominator of ratio) (Tremor-inducing action): 3
- ratio of index of reserpine-induced catatonia inhibition to number of animals presenting tremors (Tremor-inducing action): 1.33

SMILES: C=CCC(CCC)(CCC)NC [Compound 32, N-Methyl-1-n-propyl-1-allyl-n-butylamine]
- Inhibition of reserpine-induced catatonia ([6]; 5 mg/kg oral): 2 (represents 50% inhibition of catatonia in comparison with the controls)
- index of reserpine-induced catatonia (numerator of ratio) [6]: 3 (represents 70 to 80% inhibition of catatonia in comparison with the controls)
- Inhibition of the neuroleptic-induced catatonia ([3]; 5 mg/kg oral): 2 (represents 50% inhibition of catatonia in comparison with the controls)
- number of animals presenting tremors (denominator of ratio) (Tremor-inducing action): 0
- ratio of index of reserpine-induced catatonia inhibition to number of animals presenting tremors (Tremor-inducing action): 3/0

SMILES: CCCC(CCC)(CCC)NCC [Compound 33, N-Ethyl-1,1-di-n-propyl-n-butylamine]
- selectivity ratio (in vivo): 16.5
- Inhibition of reserpine-induced catatonia ([6]; 6 mg/kg oral): 2 (represents 50% inhibition of catatonia in comparison with the controls)
- Inhibition of the neuroleptic-induced catatonia ([3]; 6 mg/kg oral): 4 (represents 100% inhibition of catatonia in comparison with the controls)

SMILES: CCCC(CCC)(CCC)NC(C)C [Compound 34, N-Isopropyl-1,1-di-n-propyl-n-butylamine]
- selectivity ratio (in vivo): 21.6
- Inhibition of reserpine-induced catatonia ([6]; 6.5 mg/kg oral): 2 (represents 50% inhibition of catatonia in comparison with the controls)
- Inhibition of reserpine-induced catatonia ([6]; 13 mg/kg oral): 4 (represents 100% inhibition of catatonia in comparison with the controls)
- Inhibition of the neuroleptic-induced catatonia ([3]; 3 mg/kg oral): 2 (represents 50% inhibition of catatonia in comparison with the controls)
- Inhibition of the neuroleptic-induced catatonia ([3]; 6.5 mg/kg oral): 4 (represents 100% inhibition of catatonia in comparison with the controls)

SMILES: C=CCNC(CCC)(CCC)CCC [Compound 35, N-Allyl-1,1-di-n-propyl-n-butylamine]
- selectivity ratio (in vivo): 21
- Inhibition of reserpine-induced catatonia ([6]; 6 mg/kg oral): 2 (represents 50% inhibition of catatonia in comparison with the controls)
- Inhibition of the neuroleptic-induced catatonia ([3]; 6 mg/kg oral): 4 (represents 100% inhibition of catatonia in comparison with the controls)

SMILES: C#CCNC(CCC)(CCC)CCC [Compound 36, N-Propargyl-1,1-di-n-propyl-n-butylamine]
- selectivity ratio (in vivo): > 25
- Inhibition of reserpine-induced catatonia ([6]; 6 mg/kg oral): 1 (represents 20 to 30% inhibition of catatonia in comparison with the controls)
- index of reserpine-induced catatonia (numerator of ratio) [6]: 3 (represents 70 to 80% inhibition of catatonia in comparison with the controls)
- Inhibition of the neuroleptic-induced catatonia ([3]; 6 mg/kg oral): 4 (represents 100% inhibition of catatonia in comparison with the controls)
- number of animals presenting tremors (denominator of ratio) (Tremor-inducing action): 5
- ratio of index of reserpine-induced catatonia inhibition to number of animals presenting tremors (Tremor-inducing action): 0.60

SMILES: CCCC(CCC)(CCC)N1CC1 [Compound 40, N,N-Ethylene-1,1-di-n-propyl-n-butylamine]
- selectivity ratio (in vivo): > 25
- Inhibition of reserpine-induced catatonia ([6]; 6 mg/kg oral): 2 (represents 50% inhibition of catatonia in comparison with the controls)
- Inhibition of the neuroleptic-induced catatonia ([3]; 6 mg/kg oral): 1 (represents 20 to 30% inhibition of catatonia in comparison with the controls)
- Inhibition of the neuroleptic-induced catatonia ([3]; 12 mg/kg oral): 3 (represents 70 to 80% inhibition of catatonia in comparison with the controls)

SMILES: C=NC(CCC)(CCC)CCC [Compound 41, N-Methylene-1,1-di-n-propyl-n-butylamine]
- selectivity ratio (in vivo): 27
- Inhibition of reserpine-induced catatonia ([6]; 5.5 mg/kg oral): 4 (represents 100% inhibition of catatonia in comparison with the controls)
- Inhibition of the neuroleptic-induced catatonia ([3]; 5.5 mg/kg oral): 3 (represents 70 to 80% inhibition of catatonia in comparison with the controls)

SMILES: CC=NC(CCC)(CCC)CCC [Compound 42, N-Ethylidene-1,1-di-n-propyl-n-butylamine]
- selectivity ratio (in vivo): 20
- Inhibition of reserpine-induced catatonia ([6]; 6 mg/kg oral): 4 (represents 100% inhibition of catatonia in comparison with the controls)
- Inhibition of the neuroleptic-induced catatonia ([3]; 6 mg/kg oral): 2 (represents 50% inhibition of catatonia in comparison with the controls)

SMILES: CCCC(CCC)(CCC)NCCO [Compound 43, N-(2-Hydroxyethyl)-1,1-di-n-propyl-n-butylamine]
- selectivity ratio (in vivo): 23
- Inhibition of reserpine-induced catatonia ([6]; 13 mg/kg oral): 3 (represents 70 to 80% inhibition of catatonia in comparison with the controls)
- Inhibition of the neuroleptic-induced catatonia ([3]; 6.5 mg/kg oral): 1 (represents 20 to 30% inhibition of catatonia in comparison with the controls)

SMILES: CCCC(CCC)(CCC)N1CCOCC1 [Compound 46, N,N-(3-Oxapentamethylene)-1,1-di-n-propyl-n-butylamine]
- selectivity ratio (in vivo): 31
- Inhibition of reserpine-induced catatonia ([6]; 8 mg/kg oral): 1 (represents 20 to 30% inhibition of catatonia in comparison with the controls)
- Inhibition of the neuroleptic-induced catatonia ([3]; 8 mg/kg oral): 2 (represents 50% inhibition of catatonia in comparison with the controls)
